According to patent publication US20260335306A1, “DOSAGE REGIMENS OF ESTROGEN RECEPTOR DEGRADERS” (priority 2022, published 2026):
Like-named read-outs stand apart in the source and are kept apart here.

Key:
[1] = system: MCF7 orthotopic xenograft; test: MCF7 orthotopic xenograft model, abemaciclib study; type: in vivo, NOD/SCID mice; conditions: 28 days; Compound A 30 mg/kg, abemaciclib 30 mg/kg orally QD, fulvestrant 200 mg/kg SC; FIG. 3A
Method: Briefly, MCF7 cells were orthotopically implanted into the mammary fat pads of NOD/SCID female mice. 17β-estradiol 0.72 mg 90-day pellet (Innovative Research of America) were implanted 2-3 days prior to MCF7 cell implant. […] Fulvestrant-treated mice were dosed subcutaneously twice per week for 2 weeks followed by once weekly for 2 weeks.
Eight- to ten-week-old female NOD/SCID mice were surgically implanted with a 0.36 mg 90-day release 17β-estradiol pellet subcutaneously. One to two days later each mouse was injected with 5×10^6/200 μL MCF7 cells into one mammary fat pad. […] Fulvestrant (200 mg/kg, subcutaneously; twice per week for 2 weeks followed by once-weekly for 2 weeks) was also evaluated as a single agent and in combination with abemaciclib and ribociclib. […]
Vehicle for abemaciclib was 1% hydroxymethyl cellulose (HEC) in 20 mM HCl pH2. […] Tumor volumes were measured twice per week in efficacy studies and calculated using (width^2×length)/2, where all measurements are in millimeters (mm) and the tumor volume is in mm^3. Body weights were recorded twice per week. […] Tumor growth inhibition (TGI) was calculated as follows, where tumor volume is in mm^3:

MCF7 cells = test: Live-cell imaging proliferation assay (Incucyte), MCF7; type: cell-based; conditions: for GI50: Homo sapiens, MCF7, 120 h, read-out: approximate GI50; for mean decrease in MCF7 cell growth relative to control: 5 days, Compound A 10 nM
Excerpt: (§1) FIGS. 1A-1H are graphs showing quantification of the MCF7 and T47D live-cell imaging proliferation assays. […] Each plot is representative of three independent experiments. […] Each plot is representative of three independent experiments, except for the T47D fulvestrant arms in FIGS. 1A and 1C, which are the result of 2 independent experiments). FIGS. 1B, 1D, 1F and 1H show differences in relative MCF7 and T47D cell growth compared to vehicle control at 120-hours of treatment. Graphs show the mean of three independent experiments, except for the T47D fulvestrant arms in FIGS. 1B and 1D, which are the result of 2 independent experiments). Error bars=standard error of the mean (SEM). *p<0.025, **p≤0.008, ***p≤0.0006, ****p<0.0001, ns=not significant (one-way ANOVA test).
(§2) MCF7 or T47D cells were seeded in 6 well plates and treated with the indicated concentrations of compounds. The plate was then placed in the Incucyte® S3 Live-Cell Analysis System and images were acquired every 4 hours for a total of 5 days. Data were analyzed using the Incucyte® Software v2020C which quantified cell surface area coverage as confluence values. Relative growth was calculated for all timepoints for all growth conditions relative to the confluence value observed for the control at 120 hours (FIGS. 1A and 1C). Graphing and statistical analyses were performed using Graphpad Prism (GraphPad Software).
(§3) For fulvestrant and fulvestrant plus abemaciclib, mean decreases in MCF7 cell growth were 48% and 68%, respectively.

T47D cells = test: Live-cell imaging proliferation assay (Incucyte), T47D; type: cell-based; conditions: Homo sapiens, 120 h; for GI50: read-out: approximate GI50
Excerpt: as §1, §2, §3

MCF7 xenograft = MCF7 xenograft model, palbociclib study; type: in vivo, NOD/SCID mice; conditions: 28 days; Compound A 30 mg/kg PO QD, fulvestrant 200 mg/kg SC, palbociclib 60 mg/kg PO QD; FIG. 5
Method: Female severe combined immunodeficient mouse in non-obese background (NOD/scid) mice were implanted with MCF7 cells and compound administration was initiated once the tumors reached 200 mm^3. Tumor volumes were evaluated twice per week for 28 days. […] Data are presented as mean±standard error of the mean (SEM)
(§4) Briefly, MCF7 cells were orthotopically implanted into the mammary fat pads of NOD/SCID female mice. 17β-estradiol 0.72 mg 90-day pellet (Innovative Research of America) were implanted 2-3 days prior to MCF7 cell implant. […] Compound A- and/or combination partner-treated mice were dosed orally once daily. Fulvestrant-treated mice were dosed subcutaneously twice per week for 2 weeks followed by once weekly for 2 weeks.
(§5) Vehicle for abemaciclib was 1% […] (HEC) in 20 mM HCl pH2. Vehicle for ribociclib was 0.5% methylcellulose. Vehicle for fulvestrant was 10% w/v ethanol, 10% w/v benzyl alcohol, 15% w/v benzyl benzoate, made up to 100% w/v with castor oil. […] Tumor volumes were measured twice per week in efficacy studies and calculated using (width^2×length)/2, where all measurements are in millimeters (mm) and the tumor volume is in mm^3. Body weights were recorded twice per week. […] Tumor growth inhibition (TGI) was calculated as follows, where tumor volume is in mm^3: […]

[2] = human, in vivo
[3] = Biopharmaceutics Classification System classification; type: physicochemical
[4] = Interconversion of Compound A to Compound B; type: physicochemical
[5] = Clinical Pharmacology Study: safety in healthy volunteers; conditions: 200 mg, 47 healthy participants
[6] = FIH Study Part C: pharmacokinetics in patients with breast cancer; type: in vivo, human; conditions: preliminary
Method: Additional evaluation will include single- and multiple-dose pharmacokinetics and biochemical activity.
Palbociclib was administered orally once a day at 125 mg/day for 21 days followed by 7 days off treatment for each 28-day cycle according to product labeling and in compliance with its local prescribing information.
Anticancer Drugs. 2018 March; 29 (3): 271280).

[7] = Exposure of Compound B relative to Compound A (preclinical data)
ER = molecular target: T1, ER (Homo sapiens, UniProt P03372); test: ER degradation
T1 construct: degradation by PROTAC
T1 sequence (P03372 1-595): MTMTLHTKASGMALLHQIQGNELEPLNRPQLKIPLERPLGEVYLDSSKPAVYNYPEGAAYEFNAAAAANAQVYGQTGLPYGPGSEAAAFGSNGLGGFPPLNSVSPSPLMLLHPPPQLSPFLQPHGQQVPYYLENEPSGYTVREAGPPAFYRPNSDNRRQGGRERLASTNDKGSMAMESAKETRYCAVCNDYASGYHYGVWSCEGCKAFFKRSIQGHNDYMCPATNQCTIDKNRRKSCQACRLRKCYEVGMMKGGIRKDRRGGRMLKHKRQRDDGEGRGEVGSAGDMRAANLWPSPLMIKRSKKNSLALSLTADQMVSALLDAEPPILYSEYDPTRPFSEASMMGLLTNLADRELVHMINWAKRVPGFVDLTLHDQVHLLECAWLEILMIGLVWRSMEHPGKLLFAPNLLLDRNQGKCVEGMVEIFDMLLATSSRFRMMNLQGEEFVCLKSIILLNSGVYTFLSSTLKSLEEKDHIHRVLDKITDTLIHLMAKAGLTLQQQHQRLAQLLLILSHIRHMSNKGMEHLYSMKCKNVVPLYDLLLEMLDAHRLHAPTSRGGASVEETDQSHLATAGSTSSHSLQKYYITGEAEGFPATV

[8] = system: MCF7 orthotopic xenograft; test: MCF7 orthotopic xenograft model, ribociclib study; type: in vivo, NOD/SCID mice; conditions: 28 days; Compound A 30 mg/kg, ribociclib 75 mg/kg orally QD, fulvestrant 200 mg/kg SC; FIG. 3B
Method: Mean tumor volumes are reported ±SEM. Single-day dosing holidays are indicated by small black arrows.
Compounds dosed as single agents or in combination, 10 mice/arm.
as §4
Eight- to ten-week-old female NOD/SCID mice were surgically implanted with a 0.36 mg 90-day release 17β-estradiol pellet subcutaneously. […] Fulvestrant (200 mg/kg, subcutaneously; twice per week for 2 weeks followed by once-weekly for 2 weeks) was also evaluated as a single agent and in combination with abemaciclib and ribociclib. […]
as §5, with “pH2.” for “pH2. Vehicle for ribociclib was 0.5% methylcellulose. Vehicle for fulvestrant was 10% w/v ethanol, 10% w/v benzyl alcohol, 15% w/v benzyl benzoate, made up to 100% w/v with castor oil.”

[9] = abemaciclib experiment, fulvestrant 1 nM, abemaciclib 40 nM (approx. GI50)
[10] = read-out: mean decrease in T47D cell growth relative to control
[11] = read-out: mean change in T47D cell growth relative to control
[12] = with palbociclib, 180 up to 500 mg QD Compound A, Cycle 1 Day 1 and Day 15

## CCN1CCN(Cc2ccc(Nc3ncc(F)c(-c4cc(F)c5nc(C)n(C(C)C)c5c4)n3)nc2)CC1 [abemaciclib, N-(5-((4-ethylpiperazin-1-yl)methyl)pyridin-2-yl)-5-fluoro-4-(4-fluoro-1-isopropyl-2-methyl-1H-benzo[d]imidazol-6-yl)pyrimidin-2-amine]
[1]
  tumor growth inhibition (TGI): 50%
MCF7 cells
  GI50: ~40 nM
MCF7 cells; [9]
  mean decrease in MCF7 cell growth relative to control: 49%
T47D cells
  GI50: ~40 nM
T47D cells; [10]
  inhibition at 0.04 µM: 32%

## O=C1CC[C@H](N2Cc3cc(N4CCN(CC5CCN(c6ccc([C@@H]7c8ccc(O)cc8CC[C@@H]7c7ccccc7)cc6)CC5)CC4)ccc3C2=O)C(=O)N1 [Compound A, (S)-3-(5-(4-((1-(4-((1R,2S)-6-hydroxy-2-phenyl-1,2,3,4-tetrahydronaphthalen-1-yl)phenyl)piperidin-4-yl)methyl)piperazin-1-yl)-1-oxoisoindolin-2-yl)piperidine-2,6-dione]
MCF7 xenograft
  tumor growth inhibition (TGI): 105%
[2]
  SAEs, SARs or deaths: No SAEs, SARs or deaths were reported
[3]
  Biopharmaceutics Classification System Class: Class IV
  permeability (BCS): low permeability
  solubility (BCS): low solubility
[4]
  interconversion to Compound B: can interconvert
MCF7 cells
  GI50: ~10 nM
T47D cells
  GI50: ~10 nM
T47D cells; [11]
  inhibition at 0.01 µM: 41%
T47D cells; [10]
  inhibition at 0.01 µM: 42%
[5]
  TRAEs of Grade 2 or higher: no TRAEs of Grade 2 or higher were reported
  tolerability: well-tolerated

## O=C1CC[C@@H](N2Cc3cc(N4CCN(CC5CCN(c6ccc([C@@H]7c8ccc(O)cc8OC[C@@H]7c7ccccc7)cc6)CC5)CC4)ccc3C2=O)C(=O)N1 [Compound B]
[6]; [12]
  AUCtau, dose dependence: dose-dependent increases
  Cmax, dose dependence: dose-dependent increases
[7]
  exposure of Compound B compared to Compound A: < 26%
ER
  degradation of the ER: does not degrade the ER

## CC(=O)c1c(C)c2cnc(Nc3ccc(N4CCNCC4)cn3)nc2n(C2CCCC2)c1=O [palbociclib, 6-acetyl-8-cyclopentyl-5-methyl-2-(5-piperazin-1-yl-pyridin-2-ylamino)-8H-pyrido[2,3-d]pyrimidin-7-one]
[6]; Cycle 1 Day 15, 125 mg QD palbociclib with 500 mg QD Compound A
  increase in palbociclib AUCtau vs PALOMA-1 and PALOMA-2: ~34%

## CN(C)C(=O)c1cc2cnc(Nc3ccc(N4CCNCC4)cn3)nc2n1C1CCCC1 [ribociclib, 7-cyclopentyl-N,N-dimethyl-2-[(5-piperazin-1-ylpyridin-2-yl)amino]pyrrolo[2,3-d]pyrimidine-6-carboxamide]
[8]
  tumor growth inhibition (TGI): 58%
MCF7 cells
  GI50: ~40 nM
MCF7 cells; ribociclib experiment, ribociclib 40 nM (approx. GI50)
  mean decrease in MCF7 cell growth relative to control: 44%
T47D cells
  GI50: ~40 nM
T47D cells; [11]
  inhibition at 0.04 µM: 32%

## C[C@]12CC[C@@H]3c4ccc(O)cc4C[C@@H](CCCCCCCCC[S+]([O-])CCCC(F)(F)C(F)(F)F)[C@H]3[C@@H]1CC[C@@H]2O (stereo partly shown) [fulvestrant]
MCF7 xenograft
  tumor growth inhibition (TGI): 46%
[8]
  tumor growth inhibition (TGI): 31%
[1]
  tumor growth inhibition (TGI): 42%
MCF7 cells
  GI50: ~1 nM
MCF7 cells; [9]
  mean decrease in MCF7 cell growth relative to control: 48%
T47D cells
  GI50: ~1 nM
T47D cells; [10]
  inhibition at 0.001 µM: 16%
